Experimental data reported in patent publication US20230129034A1, “TREATMENT OF DISEASE WITH ESTERS OF SELECTIVE RXR AGONISTS” (Io Therapeutics, Inc., priority 2017, published 2023).
“Also recorded” adds a separate entry of the source.

Key:
RXRα = target: T1, RXRα (Homo sapiens, UniProt P19793); test: RXR homodimer transactivation assay (rCRBPII/RXRE-tk-Luc reporter, CV-1 cells); format: cell-based
T1 construct: an expression construct including a full length RXRα, RXRβ, or RXRy; expressed in transfected cells; host or cells: CV-1
T1 sequence (P19793 1-462): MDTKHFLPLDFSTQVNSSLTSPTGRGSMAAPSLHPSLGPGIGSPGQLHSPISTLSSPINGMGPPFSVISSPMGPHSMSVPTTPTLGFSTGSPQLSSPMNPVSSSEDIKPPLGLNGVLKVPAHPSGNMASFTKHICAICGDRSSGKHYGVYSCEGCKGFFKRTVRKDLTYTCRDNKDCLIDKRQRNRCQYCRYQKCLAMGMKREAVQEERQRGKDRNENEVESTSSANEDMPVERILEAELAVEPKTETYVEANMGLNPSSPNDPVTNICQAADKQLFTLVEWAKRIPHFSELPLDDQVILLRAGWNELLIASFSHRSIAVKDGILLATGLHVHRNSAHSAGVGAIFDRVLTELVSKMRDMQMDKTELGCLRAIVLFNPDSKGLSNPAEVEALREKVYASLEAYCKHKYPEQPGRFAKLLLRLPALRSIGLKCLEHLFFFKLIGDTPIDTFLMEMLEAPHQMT
Source text: (§1) Data are mean values ± SE from five independent experiments.

RXRγ = target: T2, RXRγ (Homo sapiens, UniProt P48443); test: as above; format: cell-based
T2 construct: an expression construct including a full length RXRα, RXRβ, or RXRy; expressed in transfected cells; host or cells: CV-1
T2 sequence (P48443 1-463): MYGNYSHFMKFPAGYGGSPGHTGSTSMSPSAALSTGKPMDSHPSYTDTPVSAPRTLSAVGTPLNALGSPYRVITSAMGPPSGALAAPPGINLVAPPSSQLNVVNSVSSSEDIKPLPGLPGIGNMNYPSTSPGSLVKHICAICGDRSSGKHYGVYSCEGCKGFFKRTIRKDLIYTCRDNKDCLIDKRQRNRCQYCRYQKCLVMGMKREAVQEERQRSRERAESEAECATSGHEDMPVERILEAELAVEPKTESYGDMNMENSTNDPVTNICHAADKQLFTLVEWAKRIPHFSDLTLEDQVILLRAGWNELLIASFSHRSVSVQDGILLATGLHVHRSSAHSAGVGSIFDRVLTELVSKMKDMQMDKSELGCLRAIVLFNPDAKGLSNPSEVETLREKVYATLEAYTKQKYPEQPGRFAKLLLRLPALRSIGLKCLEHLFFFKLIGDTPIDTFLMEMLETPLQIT
Source text: as §1

RXRβ = target: T3, RXRβ (Homo sapiens, UniProt P28702); test: as above; format: cell-based
T3 construct: an expression construct including a full length RXRα, RXRβ, or RXRy; expressed in transfected cells; host or cells: CV-1
T3 sequence (P28702 1-533): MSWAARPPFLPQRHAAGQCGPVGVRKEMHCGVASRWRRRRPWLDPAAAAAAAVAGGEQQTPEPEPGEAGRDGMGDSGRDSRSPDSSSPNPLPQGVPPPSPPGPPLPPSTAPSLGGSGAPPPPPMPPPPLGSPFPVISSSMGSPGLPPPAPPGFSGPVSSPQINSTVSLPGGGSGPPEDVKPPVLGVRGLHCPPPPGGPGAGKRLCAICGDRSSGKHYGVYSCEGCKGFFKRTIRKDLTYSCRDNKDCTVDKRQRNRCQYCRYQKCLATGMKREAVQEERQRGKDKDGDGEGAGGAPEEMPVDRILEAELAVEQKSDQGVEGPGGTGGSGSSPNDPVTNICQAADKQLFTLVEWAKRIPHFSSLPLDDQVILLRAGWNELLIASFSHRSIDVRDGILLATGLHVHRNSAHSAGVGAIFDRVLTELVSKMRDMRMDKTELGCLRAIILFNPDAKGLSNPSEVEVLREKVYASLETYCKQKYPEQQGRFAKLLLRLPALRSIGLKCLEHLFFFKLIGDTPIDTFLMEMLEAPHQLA
Source text: as §1

[1] = tested on: experimental autoimmune encephalomyelitis (EAE) in C57BL/6 (B6) mice; test: EAE in C57BL/6 (B6) mice, MOG peptide induced; format: in vivo; settings: 50 µg i.p. every other day from day 7
Experimental: Mice were also given 200 ng of pertussis toxin in PBS administered by inter-peritoneal (i.p.) injection on the same day as MOG emulsion injection (day 0) and 2 days later (day 2). […] Mice were scored using the following scale: 0 - Mice have no disease, 1 -Mice have distal limp tail or rear leg weakness (paresis), 1.5 - Mice have distal limp tail and rear leg weakness, 2 - Mice have complete limp tail and rear leg weakness, 2.5 - Mice have complete limp tail and weakness in both rear legs, 3 - Mice have complete limp tail and paralysis in both rear legs, 3.5 - Mice have complete limp tail, paralysis in both rear legs, and forelimb weakness. Mice receiving a score of 3.5 were immediately euthanized.

Treg cells = test: Treg cell differentiation in in vitro cell culture; format: cell-based
LXRβ/RXR = test: Permissive heterodimer transactivation assay, CV-1 cells, 3x(PLTP/LXRE)-tk-Luc; format: cell-based; settings: 20 hr, luciferase vs T0901317
Source text: (§2) For PPARy: CV-1 cells were transfected with 3x(rAOX/DR1)-tk-Luc reporter gene and an expression vector for PPARy. For FXR:CV-1 cells were transfected with 3x(IBABP/IRI)-tk-Luc reporter gene and vectors for FXR and RXRα. For LXR:CV-1 cells were transfected with 3x(PLTP/LXRE)-tk-Luc reporter gene with vectors for LXRα or LXRβ. For Nurr1: COS7 cells were transfected with 3xNBRE-tk-luc reporter gene and full length Nurr-1 with or without full-length RXRα plasmid. […] Luciferase data were normalized to co-transfected β-gal activity. Luciferase activity was expressed as percent of maximal activity obtained using specific agonists. Rosiglitazone (PPARy), GW4064 (FXR), T0901317 (LXR).

LXRα/RXR = test: as above; format: cell-based; settings: 20 hr, luciferase vs T0901317
Source text: as §2

Th17 cells = test: Th17 cell differentiation / IL-17 production in vitro; format: cell-based
EAE in SJL mice = test: EAE in SJL mice, PLP peptide induced; format: in vivo; settings: for symptoms of EAE in SJL mice: 50 µg i.p. every other day from day 7
Experimental: To determine whether a RXR agonist or an ester of a RXR agonist can attenuate multiple sclerosis, SJL mice were immunized to induce EAE by s.c. injection at the base of their spine with 200 µL of adjuvant containing 200 µg proteolipid proteins (139-151) (PLP peptide; Peptides International, Louisville, KY) and 400 µg of non-viable M. tuberculosis H37 desiccate emulsified in a mixture of incomplete Freund’s adjuvant and PBS. Mice were also given 150 ng of pertussis toxin in PBS i.p. on the same day as PLP emulsion injection and 2 days later. […] Mice were scored using the scale described in Example 6.

RARα = target: T4, RARα (Homo sapiens, UniProt P10276); test: RAR transactivation assay (ER-RAR fusion, ERE-tk-Luc reporter, CV-1 cells); format: cell-based
T4 construct: expressed in transfected cells; host or cells: CV-1
T4 sequence (P10276 183-417 limits assumed, species assumed): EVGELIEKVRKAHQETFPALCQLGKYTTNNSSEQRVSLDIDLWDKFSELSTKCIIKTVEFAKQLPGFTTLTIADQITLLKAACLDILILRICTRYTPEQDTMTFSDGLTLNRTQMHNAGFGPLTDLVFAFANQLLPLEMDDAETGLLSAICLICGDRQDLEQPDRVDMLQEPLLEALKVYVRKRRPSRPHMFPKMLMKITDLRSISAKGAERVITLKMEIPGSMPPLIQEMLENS
Source text: as §1

[2] = CV-1 cells, 20 hours, luciferase activity
[3] = 50 µg i.p. every other day from day 7, n=6

Compound: CCOC(=O)/C=C(C)/C=C/[C@@H]1C[C@]1(C)c1ccc2c(c1)C(C)(C)CCC2(C)C [IRX4204EE, 3,7-dimethyl-6(S),7(S)-methano,7-[1,1,4,4-tetramethyl-1,2,3,4-tetrahydronaphth-7-yl]2(E),4(E) heptadienoic ethyl ester]
- EC50 (RXRα; [2]): > 1000 nM
- EC50 (RXRγ; [2]): > 1000 nM
- EC50 (RXRβ; [2]): > 1000 nM
- symptoms of EAE (disease severity score) [1]: more effective than IRX4204
- promoting the differentiation of Treg cells, relative to parent form (Treg cells; in vitro cell culture): less active than its parent form
- activation of LXRβ/RXR heterodimer (LXRβ/RXR): very little activity
- activation of LXRα/RXR heterodimer (LXRα/RXR): very little activity
- inhibiting the differentiation of Th17 cells, relative to parent form (Th17 cells; in vitro cell culture): less active than its parent form
- symptoms of EAE in SJL mice (EAE in SJL mice): greater efficacy than IRX4204
- EC50 (RARα; [2]): > 1000 nM

Compound: CC(/C=C/[C@@H]1C[C@]1(C)c1ccc2c(c1)C(C)(C)CCC2(C)C)=C\C(=O)O [IRX4204, 3,7-dimethyl-6(S),7(S)-methano,7-[1,1,4,4-tetramethyl-1,2,3,4-tetrahydronaphth-7-yl]2(E),4(E) heptadienoic acid]
- EC90 (RXRα; CV-1): ~0.1 nM
- Efficacy (% of 1 µM IRX4204) RXRα (RXRα; [2]): 100 % of 1 µM IRX4204
- Efficacy (% of 1 µM IRX4204) RXRγ (RXRγ): 0.09 ±0.01 100 % of 1 µM IRX4204
- EC90 (RXRγ; CV-1, read-out: EC90 with RXRγ): ~0.1 nM
- EC90 (RXRβ; CV-1, read-out: EC90 with RXRβ): ~1 nM
- symptoms of EAE (disease severity score) [1]: significantly reduces the symptoms of EAE
- formation of Treg cells (Treg cells; 1 nM): substantially enhances the formation of Treg cells
- activation of LXRβ/RXR heterodimer (LXRβ/RXR): not to transactivate; also recorded: does not activate
- activation of LXRα/RXR heterodimer (LXRα/RXR): not to transactivate; also recorded: does not activate
- production of IL-17 (Th17 cells; 1 nM): profoundly inhibits production of IL-17
- symptoms of EAE in SJL mice (EAE in SJL mice): significantly reduces the symptoms of EAE
- Death from Disease (EAE in SJL mice; [3]): 0/6
- Disease Incidence (EAE in SJL mice; [3]): 4/6
- Mean Maximum Score (EAE in SJL mice; [3]): 1.5 ± 1.4
- EC10 with RARα (RARα): about 300 nM
